The target in test [1] is Calcium/calmodulin-dependent protein kinase type II subunit beta (Homo sapiens) (UniProt Q13554). Description: Inhibition of human CAMK2 beta catalytic domain expressed in baculovirus assessed as substrate phosphorylation using fluorescence-labelled peptides as substrate at 95 uM after 90 mins by microfluidic peptide phosphorylation assay.
The target of test [2] is Protein kinase C beta type (Homo sapiens) (UniProt P05771). Description: Inhibition of human truncated PKC beta1 expressed in baculovirus assessed as substrate phosphorylation using fluorescence-labelled peptides as substrate at 95 uM after 90 mins by microfluidic peptide phosphorylation assay.
The target in test [3] is T1, Testis-specific serine/threonine-protein kinase 2 (Homo sapiens) (UniProt Q96PF2).
T1 sequence (whole entry): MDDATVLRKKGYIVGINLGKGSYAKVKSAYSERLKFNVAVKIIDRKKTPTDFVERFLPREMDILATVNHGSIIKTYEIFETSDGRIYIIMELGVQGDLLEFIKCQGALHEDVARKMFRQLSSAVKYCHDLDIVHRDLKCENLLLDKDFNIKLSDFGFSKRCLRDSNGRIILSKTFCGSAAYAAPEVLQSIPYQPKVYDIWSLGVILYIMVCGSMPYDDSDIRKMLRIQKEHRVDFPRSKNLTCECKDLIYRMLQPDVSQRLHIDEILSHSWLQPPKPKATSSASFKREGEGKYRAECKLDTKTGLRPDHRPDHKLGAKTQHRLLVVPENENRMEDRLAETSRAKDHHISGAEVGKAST
Description: Inhibition of human full length TSSK2 expressed in baculovirus assessed as substrate phosphorylation using fluorescence-labelled peptides as substrate at 95 uM after 90 mins by microfluidic peptide phosphorylation assay.

Test [4] has as its target Protein kinase C theta type (Homo sapiens) (UniProt Q04759). Description: Inhibition of human truncated PKC theta expressed in baculovirus assessed as substrate phosphorylation using fluorescence-labelled peptides as substrate at 8 uM after 90 mins by microfluidic peptide phosphorylation assay.
Test [5] has as its target Protein kinase C beta type (Homo sapiens) (UniProt P05771). Description: Inhibition of human full length PKC beta2 expressed in baculovirus assessed as substrate phosphorylation using fluorescence-labelled peptides as substrate at 70 uM after 90 mins by microfluidic peptide phosphorylation assay.
Test [6] deals with Insulin-like growth factor 1 receptor (Homo sapiens) (UniProt P08069). Description: Inhibition of human IGF1R catalytic domain expressed in baculovirus assessed as substrate phosphorylation using fluorescence-labelled peptides as substrate at 70 uM after 90 mins by microfluidic peptide phosphorylation assay.
The target in test [7] is T2, Cytoplasmic tyrosine-protein kinase BMX (Homo sapiens) (UniProt P51813).
T2 sequence (whole entry): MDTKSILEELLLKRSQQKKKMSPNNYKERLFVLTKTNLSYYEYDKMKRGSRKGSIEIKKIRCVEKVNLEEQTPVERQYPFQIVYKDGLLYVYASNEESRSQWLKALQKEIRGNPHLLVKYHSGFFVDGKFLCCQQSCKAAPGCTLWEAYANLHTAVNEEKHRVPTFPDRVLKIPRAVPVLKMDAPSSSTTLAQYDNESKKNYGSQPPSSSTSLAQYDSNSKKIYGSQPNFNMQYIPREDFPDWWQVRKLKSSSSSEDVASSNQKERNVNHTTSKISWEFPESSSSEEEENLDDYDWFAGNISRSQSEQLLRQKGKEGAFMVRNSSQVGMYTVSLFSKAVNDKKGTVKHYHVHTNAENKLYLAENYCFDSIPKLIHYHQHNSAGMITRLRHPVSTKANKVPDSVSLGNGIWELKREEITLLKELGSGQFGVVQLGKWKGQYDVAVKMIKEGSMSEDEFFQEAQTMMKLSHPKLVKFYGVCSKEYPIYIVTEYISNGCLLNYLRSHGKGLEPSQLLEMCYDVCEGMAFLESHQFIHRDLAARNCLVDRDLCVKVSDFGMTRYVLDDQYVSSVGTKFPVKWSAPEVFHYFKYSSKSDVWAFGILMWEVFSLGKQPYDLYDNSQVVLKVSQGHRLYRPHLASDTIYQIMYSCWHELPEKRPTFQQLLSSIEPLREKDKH
Description: Inhibition of human full length BMX expressed in baculovirus assessed as substrate phosphorylation using fluorescence-labelled peptides as substrate at 70 uM after 90 mins by microfluidic peptide phosphorylation assay.

The target in test [8] is Fibroblast growth factor receptor 4 (Homo sapiens) (UniProt P22455). Description: Inhibition of human FGFR4 catalytic domain expressed in baculovirus assessed as substrate phosphorylation using fluorescence-labelled peptides as substrate at 70 uM after 90 mins by microfluidic peptide phosphorylation assay.
Test [9] concerns Tyrosine-protein kinase ABL1 (Homo sapiens), P00519 [H396P]. Description: Inhibition of human truncated ABL H396P mutant expressed in baculovirus assessed as substrate phosphorylation using fluorescence-labelled peptides as substrate at […] after 90 mins by microfluidic peptide phosphorylation assay.
In test [10] the target is T3, Aurora kinase C (Homo sapiens) (UniProt Q9UQB9).
T3 sequence (whole entry): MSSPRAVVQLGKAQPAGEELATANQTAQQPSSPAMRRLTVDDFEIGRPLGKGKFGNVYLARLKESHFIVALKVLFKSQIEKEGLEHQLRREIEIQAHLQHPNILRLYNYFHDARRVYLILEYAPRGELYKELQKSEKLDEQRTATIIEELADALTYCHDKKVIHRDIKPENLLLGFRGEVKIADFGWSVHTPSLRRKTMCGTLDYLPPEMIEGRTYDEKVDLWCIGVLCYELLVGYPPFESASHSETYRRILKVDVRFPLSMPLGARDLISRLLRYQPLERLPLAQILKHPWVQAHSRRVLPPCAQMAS
Description: Inhibition of human full length AurC expressed in baculovirus assessed as substrate phosphorylation using fluorescence-labelled peptides as substrate at […] after 90 mins by microfluidic peptide phosphorylation assay.

Test [11] concerns the target Cyclin-dependent kinase 2 (Homo sapiens) (UniProt P24941). Description: Inhibition of human full length CDK2 expressed in baculovirus assessed as substrate phosphorylation using fluorescence-labelled peptides as substrate at 420 uM after 90 mins by microfluidic peptide phosphorylation assay.

In ChEMBL document CHEMBL3132769, “Fragment growing to retain or alter the selectivity of anchored kinase hinge-binding fragments” (Medchemcomm, 2014) one finds inhibition data, which are given here for five compounds.

A word on the inhibition: it is the share of the control response that was lost under treatment.

SMILES strings stand for the structures.

Protein kinase C beta type (Homo sapiens), sequence (P05771 2-671 limits assumed): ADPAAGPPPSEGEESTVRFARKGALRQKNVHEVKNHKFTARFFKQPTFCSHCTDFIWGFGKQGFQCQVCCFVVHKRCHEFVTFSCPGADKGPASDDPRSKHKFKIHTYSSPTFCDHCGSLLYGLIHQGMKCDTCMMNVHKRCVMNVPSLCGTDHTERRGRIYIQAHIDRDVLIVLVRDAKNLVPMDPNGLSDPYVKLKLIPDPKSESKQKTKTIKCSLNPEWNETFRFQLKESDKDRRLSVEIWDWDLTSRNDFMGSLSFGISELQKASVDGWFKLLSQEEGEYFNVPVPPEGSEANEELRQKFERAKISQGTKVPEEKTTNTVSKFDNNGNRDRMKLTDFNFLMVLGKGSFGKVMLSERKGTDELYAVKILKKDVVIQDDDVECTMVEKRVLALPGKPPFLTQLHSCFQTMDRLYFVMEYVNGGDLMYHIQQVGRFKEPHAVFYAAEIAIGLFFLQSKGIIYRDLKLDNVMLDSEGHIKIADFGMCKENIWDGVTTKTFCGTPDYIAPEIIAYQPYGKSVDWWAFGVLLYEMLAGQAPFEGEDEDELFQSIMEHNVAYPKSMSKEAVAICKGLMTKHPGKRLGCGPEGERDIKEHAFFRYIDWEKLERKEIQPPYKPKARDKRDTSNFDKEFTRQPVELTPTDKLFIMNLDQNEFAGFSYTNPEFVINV
Fibroblast growth factor receptor 4 (Homo sapiens), sequence (P22455 22-802 limits assumed): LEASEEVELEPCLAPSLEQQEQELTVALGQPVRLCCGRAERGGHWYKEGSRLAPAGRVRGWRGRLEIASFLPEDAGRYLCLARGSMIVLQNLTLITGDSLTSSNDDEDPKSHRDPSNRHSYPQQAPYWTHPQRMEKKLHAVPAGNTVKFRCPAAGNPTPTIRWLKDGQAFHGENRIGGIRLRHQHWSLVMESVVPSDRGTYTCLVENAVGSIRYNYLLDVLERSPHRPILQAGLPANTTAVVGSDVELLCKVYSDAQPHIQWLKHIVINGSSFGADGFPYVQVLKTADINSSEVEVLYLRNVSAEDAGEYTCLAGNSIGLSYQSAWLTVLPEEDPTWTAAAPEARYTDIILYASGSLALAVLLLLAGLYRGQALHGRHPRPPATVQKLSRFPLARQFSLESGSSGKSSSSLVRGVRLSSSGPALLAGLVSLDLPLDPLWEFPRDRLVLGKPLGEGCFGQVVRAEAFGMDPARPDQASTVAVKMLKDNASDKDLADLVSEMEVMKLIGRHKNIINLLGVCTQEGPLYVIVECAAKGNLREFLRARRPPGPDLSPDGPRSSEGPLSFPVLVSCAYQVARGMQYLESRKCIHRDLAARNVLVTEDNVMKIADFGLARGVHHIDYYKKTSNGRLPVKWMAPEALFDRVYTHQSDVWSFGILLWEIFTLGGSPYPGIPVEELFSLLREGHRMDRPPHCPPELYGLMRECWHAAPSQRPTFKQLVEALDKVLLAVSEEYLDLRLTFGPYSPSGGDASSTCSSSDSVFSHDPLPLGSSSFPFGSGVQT
Calcium/calmodulin-dependent protein kinase type II subunit beta (Homo sapiens), sequence (Q13554 whole entry, the tested form may be a part): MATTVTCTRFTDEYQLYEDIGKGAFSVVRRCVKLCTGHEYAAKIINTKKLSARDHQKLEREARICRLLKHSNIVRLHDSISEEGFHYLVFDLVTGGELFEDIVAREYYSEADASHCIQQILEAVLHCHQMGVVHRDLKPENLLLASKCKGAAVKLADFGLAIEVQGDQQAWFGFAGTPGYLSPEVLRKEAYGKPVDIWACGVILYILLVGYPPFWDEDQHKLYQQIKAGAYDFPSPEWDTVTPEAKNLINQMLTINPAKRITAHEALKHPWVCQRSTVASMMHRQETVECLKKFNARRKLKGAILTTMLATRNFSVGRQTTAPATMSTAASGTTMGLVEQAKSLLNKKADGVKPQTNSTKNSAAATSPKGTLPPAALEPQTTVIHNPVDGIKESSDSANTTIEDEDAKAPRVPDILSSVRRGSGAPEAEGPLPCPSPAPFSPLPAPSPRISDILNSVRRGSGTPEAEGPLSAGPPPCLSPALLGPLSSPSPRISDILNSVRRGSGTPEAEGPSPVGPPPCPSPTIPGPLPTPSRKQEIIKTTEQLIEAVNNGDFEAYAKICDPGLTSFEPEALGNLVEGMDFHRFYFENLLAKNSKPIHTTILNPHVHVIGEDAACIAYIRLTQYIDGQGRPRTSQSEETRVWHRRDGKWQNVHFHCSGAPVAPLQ
Protein kinase C theta type (Homo sapiens), sequence (Q04759 whole entry, looked up, the tested form may be a part): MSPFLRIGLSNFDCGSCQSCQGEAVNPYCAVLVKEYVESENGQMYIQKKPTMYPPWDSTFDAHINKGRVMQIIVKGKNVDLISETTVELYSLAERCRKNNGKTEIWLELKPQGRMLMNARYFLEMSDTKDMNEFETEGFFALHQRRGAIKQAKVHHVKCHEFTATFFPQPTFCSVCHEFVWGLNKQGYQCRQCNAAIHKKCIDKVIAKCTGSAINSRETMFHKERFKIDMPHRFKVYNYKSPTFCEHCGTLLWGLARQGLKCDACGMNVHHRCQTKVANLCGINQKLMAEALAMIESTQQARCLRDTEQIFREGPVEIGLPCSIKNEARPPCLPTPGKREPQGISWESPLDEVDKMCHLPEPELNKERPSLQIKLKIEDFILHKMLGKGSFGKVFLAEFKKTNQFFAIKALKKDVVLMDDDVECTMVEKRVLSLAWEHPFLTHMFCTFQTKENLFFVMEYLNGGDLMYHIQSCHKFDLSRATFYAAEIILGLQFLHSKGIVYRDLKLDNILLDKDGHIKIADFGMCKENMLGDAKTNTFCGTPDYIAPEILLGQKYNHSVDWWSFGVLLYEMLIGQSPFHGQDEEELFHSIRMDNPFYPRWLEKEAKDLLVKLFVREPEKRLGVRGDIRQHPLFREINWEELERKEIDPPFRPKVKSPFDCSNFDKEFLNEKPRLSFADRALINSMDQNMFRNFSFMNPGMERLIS

Regarding `NCCc1ccc(-c2ncnc3[nH]cnc23)cc1`, the inhibition is 2% in test [1], 77% in [2] and 23.5% in [3].

For `NCC1CCN(c2ncnc3[nH]ccc23)CC1`, the inhibition in test [4] was 67.5%.

Consider `CNCc1ccc(-c2ncnc3[nH]cnc23)cc1`, for which the inhibition in test [5] was found to be 0%; in test [6], 0%; in test [7], 0%; in [8], 11.5%.

With `COC(=O)c1cnc(Nc2cnc(C#N)cn2)cc1NCC1CCNCC1`, the figures for the inhibition in test [9] and in test [10] were 1% and 7.5%, respectively.

With `c1nc(N2CCOCC2)c2nc[nH]c2n1`, in test [11], the inhibition turned out to be 75%.
